System: rat model of bone cancer pain (Walker 256 rat mammary gland carcinoma cells injected into the right tibia)
Experiment: Mechanical allodynia (Von Frey test) in a rat model of bone cancer pain
Assay type: in vivo, Rat (Sprague-Dawley)
Conditions: 30 μg/kg s.c. every second day
Procedure: The objective of this study was to assess the potential anti-nociceptive and anti-tumourigenic effects of Compound 1, at doses of 15, 30 and 45 mg/kg, in an animal model of bone cancer pain. Metastasis of cancer cells to the bone was modeled by injecting Walker 256 rat mammary gland carcinoma cells into the medullary cavity of the right tibia (Mao-Yinga, et al. A rat model of bone cancer pain induced by intra-tibia inoculation of Walker 256 mammary gland carcinoma cells. Biochem Biophys Res Commun 2006; 345: 1292-1298). The development of mechanical allodynia was monitored using an established behavioural test (Von Frey test). Treatment administration was chronic, from the day of surgery, and administered twice daily for 21 days to determine whether there was a prophylactic effect on the development of mechanical allodynia. Zoledronic acid was used as a reference substance. No regulatory test guidelines were applicable to this study.
Rats have been studied in this model of bone cancer pain. The route of administration of Compound 1 and vehicle was oral. The doses of Compound 1 were 15, 30 and 45 mg/kg, twice a day (approximately 10 h apart) for 21 days.
The dose of zoledronic acid was 30 μg/kg, as a single administration, every second day from the day of surgery, based on historical data. The route of administration of zoledronic acid was subcutaneous.
The dose volume for test substance and vehicle treatments was 5 mL/kg. The vehicle for Compound 1 was corn oil. Each rat allocated to test substance or vehicle treatments received an oral dose, by gavage, twice daily (approximately 8 am and 6 pm) for 21 consecutive days. The dose volume for the reference substance treatment was 1 mL/kg. Each rat allocated to reference substance treatment received a single subcutaneous dose, by injection (approximately 8 am) every second day from the day of surgery.
Cell preparation. Walker 256 rat mammary gland carcinoma cells (obtained from the American Type Culture Collection (ATCC)) were harvested from sub-confluent cultures growing in vitro and the number of viable cells determined. Cells were then re-suspended in sterile phosphate buffered saline (PBS) at a concentration of 4×10^5 cells. Female Sprague-Dawley rats were intratibially injected in the right leg with 4×10^5 Walker 256 rat mammary gland carcinoma cells in a volume of 6 μL as detailed in Surgical procedure below.
Baseline behavioural testing. The rats were moved to the procedure room 5 days prior to behavioural testing. The rats were then housed, dosed and observed in the procedure room. The behavioural test was performed on all rats on 2 separate occasions prior to surgery, to establish baseline values. Pre-surgery baseline values were taken as the data from the final (second) day of testing (the data from the first day of testing was not included but classed as part of the acclimatisation).
Mechanical allodynia (Von Frey test): Each animal was placed in a wire mesh cage and a series of Von Frey filaments were applied to the plantar surface of the hind paw, from below. The filaments were applied in ascending order (starting with the weakest force), and the withdrawal threshold for both the left and right hind paws were evaluated. Each filament was indented on the mid-plantar surface of the foot to the point where it just started to bend; this was repeated approximately 8 to 10 times per filament at a frequency of approximately 1 Hz. The withdrawal threshold was defined as the lowest force of two or more consecutive Von Frey filaments to elicit a reflex withdrawal response (i.e. a brief paw flick).
Surgical procedure. The animals were surgically prepared over 2 days. Each rat was anaesthetised as necessary with isofluorane in […]. The surface around the incision site was shaved and sterilised. Under aseptic conditions, an incision was made in the skin over the top of the right tibia to expose the tibia head with minimal damage. […]

O=P(O)(O)C(O)(Cn1ccnc1)P(=O)(O)O [Zoledronic acid, reference compound]
Withdrawal Threshold (Log 10 (force (g) × 10 000)) on Day Post-Operative (Day 6, left paw): 5.35 Log 10 (force (g) × 10 000) | Withdrawal threshold (g) on day post-operative (Day 6, left paw): 22.55 g | Withdrawal Threshold (Log 10 (force (g) × 10 000)) on Day Post-Operative (Day 6, right paw): 5.28 Log 10 (force (g) × 10 000) | Withdrawal threshold (g) on day post-operative (Day 6, right paw): 19.49 g | Withdrawal Threshold (Log 10 (force (g) × 10 000)) on Day Post-Operative (Day 12, left paw): 5.17 Log 10 (force (g) × 10 000) | Withdrawal threshold (g) on day post-operative (Day 12, left paw): 15.14 g | Withdrawal Threshold (Log 10 (force (g) × 10 000)) on Day Post-Operative (Day 12, right paw): 4.98 Log 10 (force (g) × 10 000) | Withdrawal threshold (g) on day post-operative (Day 12, right paw): 9.95 g | Withdrawal Threshold (Log 10 (force (g) × 10 000)) on Day Post-Operative (Day 14, left paw): 5.15 Log 10 (force (g) × 10 000) | Withdrawal threshold (g) on day post-operative (Day 14, left paw): 15.02 g | Withdrawal Threshold (Log 10 (force (g) × 10 000)) on Day Post-Operative (Day 14, right paw): 4.99 Log 10 (force (g) × 10 000) | Withdrawal threshold (g) on day post-operative (Day 14, right paw): 10.28 g | Withdrawal Threshold (Log 10 (force (g) × 10 000)) on Day Post-Operative (Day 19, left paw): 5.14 Log 10 (force (g) × 10 000) | Withdrawal threshold (g) on day post-operative (Day 19, left paw): 14.66 g | Withdrawal Threshold (Log 10 (force (g) × 10 000)) on Day Post-Operative (Day 19, right paw): 4.97 Log 10 (force (g) × 10 000) | Withdrawal threshold (g) on day post-operative (Day 19, right paw): 10.37 g | Withdrawal Threshold (Log 10 (force (g) × 10 000)) on Day Post-Operative (Day 21, left paw): 5.15 Log 10 (force (g) × 10 000) | Withdrawal threshold (g) on day post-operative (Day 21, left paw): 15.46 g | Withdrawal threshold (g) on day post-operative (Day 21, left paw, listed as zoledronic acid): 15.46 ± 2.06 g | Withdrawal Threshold (Log 10 (force (g) × 10 000)) on Day Post-Operative (Day 21, right paw): 5.04 Log 10 (force (g) × 10 000) | Withdrawal threshold (g) on day post-operative (Day 21, right paw): 13.25 g | Withdrawal threshold (g) on day post-operative (Day 21, right paw, listed as zoledronic acid): 13.25 ± 2.28 g | Withdrawal Threshold (Log 10 (force (g) × 10 000)) on Day Post-Operative (Pre-Surgery, left paw): 5.32 Log 10 (force (g) × 10 000) | Withdrawal threshold (g) on day post-operative (Pre-Surgery, left paw): 21.02 g | Withdrawal Threshold (Log 10 (force (g) × 10 000)) on Day Post-Operative (Pre-Surgery, right paw): 5.30 Log 10 (force (g) × 10 000) | Withdrawal threshold (g) on day post-operative (Pre-Surgery, right paw): 20.26 g

— patent publication US20130142882A1, “METHODS AND COMPOSITIONS FOR TREATMENT, MODIFICATION AND MANAGEMENT OF BONE CANCER PAIN” (GOLDEN BIOTECHNOLOGY CORPORATION, priority 2011, published 2013)
